{"source": "patent US7342137B1", "about": "“Cyclohexenone compounds from Antrodia camphorata and application thereof” (Golden Biotechnology Corporation, priority 2007, dated 2008)", "type_in_all_cases": "cell-based", "key": {"[1]": {"test_system": "human hepatic-cancer cells, Hep 3B", "assay": "In vitro survival assay (MTT), hepatic cancer cells Hep 3B", "conditions": "Hep3B, 48 hours incubation", "procedure": "(§1) The NCI anti-cancer drug screen model was also adopted to test the anti-cancer effect of the compound isolated from example 1 in the present invention. The isolated compound of 4-hydroxy-2,3-dimethoxy-6-methyl-5(3,7,11-trimethyl-dodeca-2,6,10-trienyl)-cyclohex-2-enone from example 1 was added into the culture media of human hepatic-cancer cells, Hep 3B or Hep G2, for tumor cell survival assay.\n(§2) The human hepatic-cancer cells, Hep 3B and Hep G2, were separately cultivated in media containing fetal calf serum for 24 hours. The proliferated cells were washed once with PBS, then treated with 1× trypsin-EDTA and centrifuged at 1200 rpm for 5 minutes. The supernatant was discarded and the cell pellet was resuspended in 10 ml of fresh culture medium by gently shaking. The cells were placed in a 96-well plate. Ethanol extracts of Antrodia camphorata (the control group, total extracts of Antrodia camphorata without purification) were added into each of the 96 wells at the following concentrations: 30, 10, 3, 1, 0.3, 0.1 and 0.03 μg/ml, respectively, while 4-hydroxy-2,3-dimethoxy-6-methyl-5(3,7,11-trimethyl-dodeca-2,6,10-trienyl)-cyclohex-2-enone (the experiment group) were added into each of the 96 wells at the following concentrations: 30, 10, 3, 1, 0.3, 0.1 and 0.03 μg/ml, respectively. […] The plates were read on an ELISA reader at wavelength of 570 nm to determine the survival rates."}, "[2]": {"test_system": "human hepatic-cancer cells, Hep G2", "assay": "In vitro survival assay (MTT), hepatic cancer cells Hep G2", "conditions": "HepG2, 48 hours incubation", "procedure": "as §1, §2"}, "[3]": {"test_system": "human hepatic cancer cells, Hep 3B", "assay": "In vitro Lovastatin add-on study (MTT), Hep 3B", "conditions": "Homo sapiens, Hep3B, 0.0043 μg/ml Lovastatin + formula 2", "procedure": "(§3) The experiment was also carried out according to NCI anti-cancer drug screen in vitro model. The human hepatic cancer cells, Hep 3B and Hep G2 and MDA-MB-231 were separately cultivated in media containing fetal calf serum for 24 hours. The proliferated cells were washed once with PBS, then treated with 1× trypsin-EDTA and centrifuged at 1200 rpm for 5 minutes. The supernatant was discarded and the cell pellet was resuspended in 10 ml of fresh culture medium by gently shaking. The Hep 3B cells were treated with 0.0043 μg/ml of Lovastatin for 72 hours and Hep G2 cells were treated with 0.0017 μg/ml of Taxol for 72 hours before placing in a 96-well plate. 4-hydroxy-2,3-dimethoxy-6-methyl-5(3,7,11-trimethyl-dodeca-2,6,10-trienyl)-cyclohex-2-enone obtained from example 1 were added respectively into each of the 96 wells at the following concentrations: 0 μg/ml (the control group); 30, 10, 3, 1, 0.3, 0.1 and 0.03 μg/ml (the experiment group). The cells were incubated at 37° C. in a 5% CO2 incubator for 48 hours. MTT was added in a concentration of 2.5 mg/ml into each well in dark and reacted for 4 hours, followed by the addition of 100 μl of lysis buffer to stop the reaction. The plates were read on an ELISA reader at wavelength of 570 nm to determine the survival rates."}, "[4]": {"test_system": "human prostate cancer cells, LNCaP", "assay": "In vitro Taxol add-on study (MTT), prostate cancer cells LNCaP", "conditions": "Homo sapiens; LNCaP (0.0017 μg/ml Taxol + formula 2) as printed in Table 6", "procedure": "as §3, with “human prostate” for “human hepatic”, “cells, LNCaP” for “cells, Hep 3B”, “and DU-145” for “and Hep G2 and MDA-MB-231”, “The LNCaP cells were treated with 0.0017 μg/ml of Taxol for 72 hours and DU-145” for “The Hep 3B”, “0.0043” for “0.0043 μg/ml of Lovastatin for 72 hours and Hep G2 cells were treated with 0.0017”"}}, "data": [{"smiles": "COC1=C(OC)C(O)C(C/C=C(\\C)CC/C=C(\\C)CCC=C(C)C)C(C)C1=O", "note": "(stereo not shown) [formula 2, 4-hydroxy-2,3-dimethoxy-6-methyl-5(3,7,11-trimethyl-dodeca-2,6,10-trienyl)-cyclohex-2-enone]", "values": [{"measurement": "IC50", "setting": "[1]", "result": 5, "unit": "ng/mL"}, {"measurement": "IC50", "setting": "[2]", "result": 1.68, "unit": "µg/mL"}, {"measurement": "IC50", "setting": "[3]", "result": 2, "unit": "ng/mL"}, {"measurement": "IC50", "setting": "[4]", "result": 0.961, "unit": "µg/mL"}]}]}
